# Key:
# Assay type in all cases: cell-based, human rhinovirus
# rhinovirus-T39 = experiment: antiviral activity of HuIFN-α versus rhinovirus in presence and absence of menthol (MTS method, WISH cells); details: menthol 1:800
# Procedure: Rhinovirus 1A, rhinovirus 15 and rhinovirus 39 were titrated according to the tetrazolium salt (MTS)-method (Berg et al., 1990) (Hansen et al., 1989)). WISH cells were seeded in a micro tray at 3000 cells per well and incubated at 37° C., 5% CO2 overnight; the following morning the medium was replaced with 10-fold dilutions of either rhinovirus 1A, rhinovirus 15 or rhinovirus 39, respectively, in fresh medium and the trays were incubated 4-5 days at 33° C.; a microscopical examination confirmed that the CytoPathogenic Effect (CPE) was fully developed (CPE equal to 100%). The minimal amount of virus (i.e.: the highest dilution of the virus in question) which produced 100% destruction was used as “challenge virus” in the subsequent experiments. To quantitate the CPE in terms of % destruction, MTS (Berg and Owen, 2003) was added to all cultures and after 3 h incubation at 37° C. (without CO2) the trays were read in a scanner as previously described (Berg et al., 1990). […]
# The results were graphed with the concentration of interferon on the horizontal scale and the OD492 readings on the vertical scale.
# rhinovirus T39 = experiment: rhinovirus titration on WISH cell monolayers in presence or absence of menthol; details: menthol dilution 1:800; virus dilution range 10^2-10^3; WISH cells (FIG. 2A)
# Procedure: Rhinovirus 1A, rhinovirus 15 and rhinovirus 39 were titrated according to the tetrazolium salt (MTS)-method (Berg et al., 1990) (Hansen et al., 1989)). WISH cells were seeded in a micro tray at 3000 cells per well and incubated at 37° C., 5% CO2 overnight; the following morning the medium was replaced with 10-fold dilutions of either rhinovirus 1A, rhinovirus 15 or rhinovirus 39, respectively, in fresh medium and the trays were incubated 4-5 days at 33° C.; a microscopical examination confirmed that the CytoPathogenic Effect (CPE) was fully developed (CPE equal to 100%). The minimal amount of virus (i.e.: the highest dilution of the virus in question) which produced 100% destruction was used as “challenge virus” in the subsequent experiments. To quantitate the CPE in terms of % destruction, MTS (Berg and Owen, 2003) was added to all cultures and after 3 h incubation at 37° C. (without CO2) the trays were read in a scanner as previously described (Berg et al., 1990). Control cell cultures, that were not infected with virus, were included in the experiment; the latter gave the highest OD as these cells were not damaged; depending on the concentration of virus added to the different wells, the OD492 varied, accordingly: 100% CPE yielded a low OD (<0.200); 0% CPE corresponding to no infection at all (controls cell) gave a high OD (>1.200). […]
# RHV 1A, 17, and 39A = experiment: rhinovirus titration in presence of menthol, all three rhinoviruses employed
# Procedure: WISH cells were seeded in a micro tray at 3000 cells per well and incubated at 37° C., 5% CO2 overnight; the following morning the medium was replaced with 10-fold dilutions of either rhinovirus 1A, […], respectively, in fresh medium and the trays were incubated 4-5 days at 33° C.; a microscopical examination confirmed that the CytoPathogenic Effect (CPE) was fully developed (CPE equal to 100%). The minimal amount of virus (i.e.: the highest dilution of the virus in question) which produced 100% destruction was used as “challenge virus” in the subsequent experiments. To quantitate the CPE in terms of % destruction, MTS (Berg and Owen, 2003) was added to all cultures and after 3 h incubation at 37° C. (without CO2) the trays were read in a scanner as previously described (Berg et al., 1990). Control cell cultures, that were not infected with virus, were included in the experiment; the latter gave the highest OD as these cells were not damaged; depending on the concentration of virus added to the different wells, the OD492 varied, accordingly: 100% CPE yielded a low OD (<0.200); 0% CPE corresponding to no infection at all (controls cell) gave a high OD (>1.200). […]
smiles,measurement,setting,value
"CC(C)[C@@H]1CC[C@@H](C)C[C@H]1O [Menthol, levo-(−)-Menthol]",potentiation of interferon antiviral activity (interferon curve+menthol versus interferon curve),"rhinovirus-T39; interferon range 0 to 8 units/ml, HRV T39, similar at 10^-2.5",specific potentiation
same,protection compared to uninfected control cells,"rhinovirus-T39; HRV T39 at 10^-2, IFN=0 units/ml, WISH cells, OD492 (FIG. 1A)",10-15%
same,increase in protection compared to virus controls receiving no menthol,rhinovirus T39,~50%
same,protection against rhinovirus,"RHV 1A, 17, and 39A",protection was seen

# Reference: patent US20090227670A1, “PHARMACEUTICAL COMPOSITIONS COMPRISING FLAVONOIDS AND MENTHOL” (priority 2002, published 2009)
